How the values were obtained:
[1] = Specific binding of 3H-labeled compound to membrane fraction prepared from rat spinal cord; settings: 3H-labeled compound of Example 7, 37° C., 1 hour; relative to dorsal root ganglion
Experimental: (§1) A binding property of a ^3H-labeled cyclic amine derivative (I) to each of membrane fractions prepared from various tissues of a rat was evaluated, and thus, a tissue containing a molecular target of the cyclic amine derivative (I) was clarified.
(§2) As the cyclic amine derivative (I), the compound of Example 7 was used.
(§3) Male SD rats (manufactured by Charles River Laboratories Japan, Inc.) of 7 weeks old were used. Rats were anesthetized with isoflurane, and euthanized by exsanguination from the abdominal aorta using a syringe having an inner wall treated with a heparin sodium injection (manufactured by AY Pharmaceuticals Co., Ltd.). […]
(§4) A homogenate sample of each tissue thus collected was prepared, using a homogenizer, by adding a homogenize buffer (sucrose (1 M), Tris-HCl (0.5 M), and 1× protease inhibitor cocktail (manufactured by Sigma Aldrich), pH 7.6) to the collected tissue. […] The resultant supernatant was ultracentrifuged at 100,000×g at 4° C. for 60 minutes, and the thus obtained precipitate was suspended in Krebs-Ringer bicarbonate buffer (manufactured by Sigma Aldrich) to quantitatively determine the amount of protein using a BCA protein assay kit (manufactured by Thermo Fisher Scientific K.K.). […]

[2] = Specific binding of 3H-labeled compound to membrane fraction prepared from rat brainstem; settings: 3H-labeled compound of Example 7, 37° C., 1 hour; relative to dorsal root ganglion
Experimental: as §1, §2, §3, §4

[3] = tested on: primary cultured cells of rat dorsal root ganglion; assay: Axon (neurite) extension in primary cultured cells of rat dorsal root ganglion with oxaliplatin-induced axonal injury; assay type: cell-based; settings: 7 days
Excerpt: The effect of the cyclic amine derivative (I) or a pharmacologically acceptable salt thereof on neurite extension in primary cultured cells of rat dorsal root ganglion was examined.
Male SD rats (manufactured by Charles River Laboratories Japan, Inc.) of 4 to 7 weeks old were used. Each rat was anesthetized by intraperitoneally administering urethane. After confirming that the rat was anesthetized, the rat was rapidly euthanized by exsanguination from the abdominal aorta. After incision of the dorsal part, the spinal column was excised and cooled on ice. The dorsal side of the spinal column was cut off, and the spinal cord was removed from the ventral side of the spinal column to expose the dorsal root ganglia on the ventral side of the spinal column. The dorsal root ganglia (L3 to 6, right and left) were excised with tweezers, and dipped in ice-cold Leibovitz's L-15 medium (manufactured by Thermo Fisher Scientific), and the bundles of nerve fibers were removed under a stereoscopic microscope. The dorsal root ganglia from which the bundles of nerve fibers had been removed were made fine slits with ophthalmic scissors to be used as dorsal root ganglion pieces.
The dorsal root ganglion pieces were dipped in about 3 mL of a solution of collagenase A (manufactured by Roche Molecular Systems, Inc.), followed by incubation at 37° C. for 20 minutes. After the incubation, the resultant was centrifuged at 200×g at 25° C. for 5 minutes to remove a collagenase A solution corresponding to the supernatant. About 1 mL of a solution of trypsin was added thereto, followed by incubation at 37° C. for 5 minutes. Subsequently, about 3 mL of DMEM (manufactured by Thermo Fisher Scientific K.K.) containing 10% fetal bovine serum was added to the resultant, the resultant centrifuged at 200×g at room temperature for 5 minutes, and then the supernatant removed. […]

## CN(C)C1CCN(C(=O)C[C@H](O)c2nccn2C)CC1 [Example 7, (S)-1-(4-(dimethylamino)piperidin-1-yl)-3-hydroxy-3-(1-methyl-1H-imidazol-2-yl)propan-1-one]
[1]
  specific binding to the membrane fraction prepared from the spinal cord, as % of the specific binding to the dorsal root ganglion membrane fraction: 23%
[2]
  specific binding to the membrane fraction prepared from the brainstem, as % of the specific binding to the dorsal root ganglion membrane fraction: 4.2%
[3]; 100 μM with oxaliplatin 3 μM, FIG. 4, FIG. 5, p<0.025 Williams
  length of a neurite compared to the oxaliplatin alone treated group: significantly increased
[3]; 10, 30 or 100 μM with oxaliplatin 3 μM, FIG. 5
  length of a neurite compared to the oxaliplatin alone treated group: found to increase

Source: patent US12545668B2, “Cyclic amine derivative as agent for promoting advillin function, and novel cyclic amine derivative and pharmaceutical use thereof” (Toray Industries, Inc., priority 2018, dated 2026)
